Earlier results on one molecule are cited in patent US20210338693A1, “Gel Compositions for Transdermal Delivery to Maximize Drug Concentrations in the Stratum Corneum and Serum and Methods of Use Thereof” (Viramal Limited, priority 2016, published 2021).

As a reminder, the half-life is the time in which the quantity being followed falls by half.

The conditions of the data set: in vivo.

Regarding `C[C@]12CC[C@H]3[C@@H](CCC4=CC(=O)CC[C@@]43C)[C@@H]1CC[C@@H]2O` [Testosterone], the half-life is 1.4 h.
